Each structure is given as a SMILES string. Read-outs that look alike come from different tables or passages of the source.

Consider eleven molecules from patent US11464802B2, “3-substituted piperidine compounds for Cbl-b inhibition, and use thereof” (Nurix Therapeutics, Inc., priority 2019, dated 2022).

For assay [1], the system named is primary human total T-cells. Description: Primary human total T-cell activation: CD25 surface staining, Biological Example 2. The class given is cell-based. The following applies: 48 hours, fold change over baseline; for fold induction at 0.3 µM: inhibitor 0.3 μM; for fold induction at 1 µM: inhibitor 1 μM; for fold induction at 3 µM: inhibitor 3 μM.
For assay [2], the system named is primary human total T-cells. Kind of assay: Primary human total T-cell activation: IL-2 secretion, Biological Example 2. The class given is cell-based. The following applies: 48 hours, fold change over baseline; for fold induction at 0.3 µM: inhibitor 0.3 μM; for fold induction at 1 µM: inhibitor 1 μM; for fold induction at 3 µM: inhibitor 3 μM.
The target in assay [3] is Cbl-b (Homo sapiens (Human), UniProt Q13191). Description: Cbl-b displacement assay (Cbl-b inhibition assay), TR-FRET probe displacement, Biological Example 1. The class given is binding. In outline: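 N-terminally Avitagged, biotinylated truncated Cbl-b (0.5 nM "High" or 0.125 nM "Low", final) pre-incubated 1 h at room temperature with compound (1% DMSO) in HEPES pH 7.5 buffer. Then 150 nM BODIPY FL probe (~EC40) plus 2 nM streptavidin-terbium for 1 h; TR-FRET read at 520/620 nm.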
Chain of Cbl-b (Q13191 36-427): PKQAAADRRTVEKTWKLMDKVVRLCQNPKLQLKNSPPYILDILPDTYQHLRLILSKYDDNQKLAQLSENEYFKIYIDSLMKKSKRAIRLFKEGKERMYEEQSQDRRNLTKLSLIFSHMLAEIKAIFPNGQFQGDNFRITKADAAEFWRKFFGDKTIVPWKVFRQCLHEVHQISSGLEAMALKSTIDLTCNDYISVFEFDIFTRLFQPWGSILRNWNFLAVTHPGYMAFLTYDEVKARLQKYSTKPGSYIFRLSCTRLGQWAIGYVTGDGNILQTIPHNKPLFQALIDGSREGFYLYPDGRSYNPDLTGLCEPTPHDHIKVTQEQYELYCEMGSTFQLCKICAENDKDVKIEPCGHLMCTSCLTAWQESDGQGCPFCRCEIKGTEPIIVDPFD

Where [4] appears, read: anti-CD3/anti-CD28 co-stimulation.
Setting [5] is: anti-CD3/anti-CD28 co-stimulation, read-out: CD25 staining CD3/CD28 1 μM.
[6] abbreviates: anti-CD3 alone, read-out: CD25 staining CD3 1 μM.
Where [7] appears, read: anti-CD3/anti-CD28 co-stimulation, read-out: IL-2 secretion CD3/CD28 1 μM.
The mark [8] stands for this setting: anti-CD3 alone, read-out: IL-2 secretion CD3 1 μM.
Setting [9] is: 0.125 nM Cbl-b final concentration (Low), read-out: Cbl-b activity IC50 (Low).
The mark [10] stands for this setting: Cbl-b concentration (High or Low) not given, read-out: IC50 values in the Cbl-b inhibition assay of Biological Example 1.
The mark [11] stands for this setting: 0.5 nM Cbl-b final concentration (High), read-out: Cbl-b activity IC50 (High).

Regarding `C[C@H]1CCCN(Cc2cc3c(c(C4CC4)n2)CN(c2cccc(C4(Cc5nncn5C(F)F)COC4)c2)C3=O)C1` [Compound 37, 4-cyclopropyl-2-[3-(3-{[4-(difluoromethyl)-1,2,4-triazol-3-yl]methyl}oxetan-3-yl)phenyl]-6-{[(3S)-3-methylpiperidin-1-yl]methyl}-3H-pyrrolo[3,4-c]pyridin-1-one], the fold induction at 0.3 µM was greater than 1.39 in assay [1] (setting [4]) and greater than 15 in assay [2] (setting [4]). Moreover, the fold induction at 1 µM in assay [1] (setting [5]) was greater than 1.39; in assay [1] (setting [6]), greater than 1.14; in assay [2] (setting [7]), greater than 15; in assay [2] (setting [8]) it was greater than 0.66. The fold induction at 3 µM in assay [1] (anti-CD3 alone) was greater than 1.14; in assay [2] (anti-CD3 alone), greater than 0.66. For the same molecule, the IC50 in assay [3] (setting [9]) and in assay [3] (setting [10]) was 1 to 5 nM in each case.

Consider `C[C@@H]1CN(Cc2cc3c(c(C(F)(F)F)c2)CN(c2cc(C4(Cc5nncn5C)COC4)cc(NC4COC4)n2)C3=O)CCC1(F)F` [Compound 29, (R)-6-((4,4-difluoro-3-methylpiperidin-1-yl)methyl)-2-(4-(3-((4-methyl-4H-1,2,4-triazol-3-yl)methyl)oxetan-3-yl)-6-(oxetan-3-ylamino)pyridin-2-yl)-4-(trifluoromethyl)isoindolin-1-one], for which the fold induction at 0.3 µM was less than 1.24 in assay [1] (setting [4]) and 11 to 15 in assay [2] (setting [4]). For the same molecule, the fold induction at 1 µM in assay [1] (setting [5]) was less than 1.24; in assay [1] (setting [6]), less than 1.04; in assay [2] (setting [7]), 11 to 15; in assay [2] (setting [8]), 0.34 to 0.66. Also, the fold induction at 3 µM is less than 1.04 in assay [1] (anti-CD3 alone) and 0.34 to 0.66 in assay [2] (anti-CD3 alone). The IC50 in assay [3] (setting [11]) and in assay [3] (setting [10]) was 5.1 to 100 nM each time.

For `C[C@H]1CCCN(Cc2cc3c(c(C4CC4)n2)CN(c2cccc(C4(Cc5nncn5C)COC4)c2)C3=O)C1` [Compound 35, (S)-4-Cyclopropyl-2-(3-(3-((4-methyl-4H-1,2,4-triazol-3-yl)methyl)oxetan-3-yl)phenyl)-6-((3-methylpiperidin-1-yl)methyl)-2,3-dihydro-1H-pyrrolo[3,4-c]pyridin-1-one], the fold induction at 0.3 µM was less than 1.24 in assay [1] (setting [4]) and 11 to 15 in assay [2] (setting [4]). The fold induction at 1 µM in assay [1] (setting [5]) was 1.25 to 1.39; in assay [1] (setting [6]), 1.05 to 1.14; in assay [2] (setting [7]), greater than 15; in assay [2] (setting [8]), 0.34 to 0.66. The fold induction at 3 µM in assay [1] (anti-CD3 alone) was greater than 1.14; in assay [2] (anti-CD3 alone), greater than 0.66. The IC50 (usually the concentration that inhibits the measured activity by half) in assay [3] (setting [9]) is 1 to 5 nM.

Take `Cn1cnnc1CC1(c2cccc(N3Cc4c(cc(CN5CCCC6(CC6)C5)cc4C(F)(F)F)C3=O)c2)COC1` [Compound 7, 6-((5-azaspiro[2.5]octan-5-yl)methyl)-2-(3-(3-((4-methyl-4H-1,2,4-triazol-3-yl)methyl)oxetan-3-yl)phenyl)-4-(trifluoromethyl)isoindolin-1-one]: the values for the fold induction at 0.3 µM in assay [1] (setting [4]) and in assay [2] (setting [4]) were greater than 1.39 and 11 to 15, respectively. Besides, the fold induction at 1 µM in assay [1] (setting [5]) was greater than 1.39; in assay [1] (setting [6]), greater than 1.14; in assay [2] (setting [7]), 11 to 15; in assay [2] (setting [8]) it was less than 0.33. In addition, the fold induction at 3 µM was greater than 1.14 in assay [1] (anti-CD3 alone) and 0.34 to 0.66 in assay [2] (anti-CD3 alone). For the same molecule, in assay [3] (setting [11]), the IC50 is 5.1 to 100 nM.

`CCOc1cc(C2(Cc3nncn3C)COC2)cc(N2Cc3c(cc(CN4CCC(F)(F)[C@H](C)C4)nc3C3CC3)C2=O)n1` [Compound 41, 4-cyclopropyl-6-{[(3R)-4,4-difluoro-3-methylpiperidin-1-yl]methyl}-2-(6-ethoxy-4-{3-[(4-methyl-1,2,4-triazol-3-yl)methyl]oxetan-3-yl}pyridin-2-yl)-3H-pyrrolo[3,4-c]pyridin-1-one]: the fold induction at 0.3 µM in assay [1] (setting [4]) is greater than 1.39; in assay [2] (setting [4]), greater than 15. For the same molecule, the fold induction at 1 µM in assay [1] (setting [5]) is greater than 1.39; in assay [1] (setting [6]), greater than 1.14; in assay [2] (setting [7]), greater than 15; in assay [2] (setting [8]) it was greater than 0.66. Further, the fold induction at 3 µM in assay [1] (anti-CD3 alone) was greater than 1.14; in assay [2] (anti-CD3 alone) it was greater than 0.66. Besides, the IC50 in assay [3] (setting [9]) lay in the range of 1 to 5 nM.

On to `C[C@@H]1CN(Cc2cc3c(c(C(F)(F)F)c2)CN(c2cccc(C4(Cc5nncn5C)COC4)c2)C3=O)C[C@H](C)C1(F)F` [Compound 17, 6-(((cis)-4,4-difluoro-3,5-dimethylpiperidin-1-yl)methyl)-2-(3-(3-((4-methyl-4H-1,2,4-triazol-3-yl)methyl)oxetan-3-yl)phenyl)-4-(trifluoromethyl)isoindolin-1-one], for which the fold induction at 0.3 µM in assay [1] (setting [4]) is greater than 1.39; in assay [2] (setting [4]) it was 11 to 15. Further, the fold induction at 1 µM in assay [1] (setting [5]) is 1.25 to 1.39; in assay [1] (setting [6]) it was greater than 1.14; in assay [2] (setting [7]) it was greater than 15; in assay [2] (setting [8]), greater than 0.66. Further, the fold induction at 3 µM in assay [1] (anti-CD3 alone) was greater than 1.14; in assay [2] (anti-CD3 alone), greater than 0.66. For the same molecule, the IC50 in assay [3] (setting [11]) fell in the range of 1 to 5 nM.

For `C[C@@H]1CCCN(Cc2cc3c(c(C(F)(F)F)c2)CN(c2cccc(C4(Cc5nncn5C)COC4)c2)C3=O)C1` [Compound 3, (R)-2-(3-(3-((4-methyl-4H-1,2,4-triazol-3-yl)methyl)oxetan-3-yl)phenyl)-6-((3-methylpiperidin-1-yl)methyl)-4-(trifluoromethyl)isoindolin-1-one], the fold induction at 0.3 µM in assay [1] (setting [4]) lay within 1.25 to 1.39; in assay [2] (setting [4]), 11 to 15. In addition, the fold induction at 1 µM was 1.25 to 1.39 in assay [1] (setting [5]), 1.05 to 1.14 in assay [1] (setting [6]), greater than 15 in assay [2] (setting [7]) and 0.34 to 0.66 in assay [2] (setting [8]). Moreover, the results for the fold induction at 3 µM in assay [1] (anti-CD3 alone) and in assay [2] (anti-CD3 alone) were 1.05 to 1.14 and 0.34 to 0.66, respectively. Moreover, the IC50 in assay [3] (setting [11]) and in assay [3] (setting [10]) was 1 to 5 nM each time.

Consider `Cn1cnnc1CC1(c2cccc(N3Cc4c(cc(CN5CCCC(CC#N)C5)cc4C(F)(F)F)C3=O)c2)COC1` (stereo not shown) [Compound 4, 2-(1-((2-(3-(3-((4-methyl-4H-1,2,4-triazol-3-yl)methyl)oxetan-3-yl)phenyl)-3-oxo-7-(trifluoromethyl)isoindolin-5-yl)methyl)piperidin-3-yl)acetonitrile], for which the values for the fold induction at 0.3 µM in assay [1] (setting [4]) and in assay [2] (setting [4]) were greater than 1.39 and greater than 15, respectively. For the same molecule, the fold induction at 1 µM in assay [1] (setting [5]) is greater than 1.39; in assay [1] (setting [6]) it was greater than 1.14; in assay [2] (setting [7]), greater than 15; in assay [2] (setting [8]), 0.34 to 0.66. The fold induction at 3 µM in assay [1] (anti-CD3 alone) is greater than 1.14; in assay [2] (anti-CD3 alone) it was 0.34 to 0.66. Besides, the IC50 in assay [3] (setting [9]) and in assay [3] (setting [10]) was 1 to 5 nM in each case.

Consider `C[C@H]1CCCN(Cc2cc3c(c(C(F)(F)F)c2)CN(c2cc(C4(Cc5nncn5C)COC4)cc(Cl)n2)C3=O)C1` [Compound 47, 2-(6-chloro-4-{3-[(4-methyl-1,2,4-triazol-3-yl)methyl]oxetan-3-yl}pyridin-2-yl)-6-{[(3S)-3-methylpiperidin-1-yl]methyl}-4-(trifluoromethyl)-3H-isoindol-1-one], for which the fold induction at 0.3 µM is greater than 1.39 in assay [1] (setting [4]) and greater than 15 in assay [2] (setting [4]). For the same molecule, the fold induction at 1 µM is greater than 1.39 in assay [1] (setting [5]), greater than 1.14 in assay [1] (setting [6]), greater than 15 in assay [2] (setting [7]) and greater than 0.66 in assay [2] (setting [8]). Further, the fold induction at 3 µM was greater than 1.14 in assay [1] (anti-CD3 alone) and greater than 0.66 in assay [2] (anti-CD3 alone). The IC50 in assay [3] (setting [9]) and in assay [3] (setting [10]) was 5.1 to 100 nM each time.

Consider `C[C@H]1C[C@@H](CO)CN(Cc2cc3c(c(C(F)(F)F)c2)CN(c2cccc(C4(Cc5nncn5C)COC4)c2)C3=O)C1` (relative stereo) [Compound 23, cis-6-{[3-(hydroxymethyl)-5-methylpiperidin-1-yl]methyl}-2-(3-{3-[(4-methyl-1,2,4-triazol-3-yl)methyl]oxetan-3-yl}phenyl)-4-(trifluoromethyl)-3H-isoindol-1-one], for which the results for the fold induction at 0.3 µM in assay [1] (setting [4]) and in assay [2] (setting [4]) were greater than 1.39 and greater than 15, respectively. Also, the fold induction at 1 µM in assay [1] (setting [5]) was greater than 1.39; in assay [1] (setting [6]), 1.05 to 1.14; in assay [2] (setting [7]) it was greater than 15; in assay [2] (setting [8]) it was greater than 0.66. The fold induction at 3 µM in assay [1] (anti-CD3 alone) is 1.05 to 1.14; in assay [2] (anti-CD3 alone), greater than 0.66. Moreover, the IC50 in assay [3] (setting [9]) and in assay [3] (setting [10]) was less than 1 nM in each case.

`C[C@@H]1CN(Cc2cc3c(c(C(F)(F)F)c2)CN(c2cccc(C4(Cc5nncn5C(F)F)COC4)c2)C3=O)CCC1(F)F` [Compound 31, (R)-6-((4,4-difluoro-3-methylpiperidin-1-yl)methyl)-2-(3-(3-((4-(difluoromethyl)-4H-1,2,4-triazol-3-yl)methyl)oxetan-3-yl)phenyl)-4-(trifluoromethyl)isoindolin-1-one]: the fold induction at 0.3 µM in assay [1] (setting [4]) is greater than 1.39; in assay [2] (setting [4]) it was greater than 15. Moreover, the fold induction at 1 µM is greater than 1.39 in assay [1] (setting [5]), less than 1.04 in assay [1] (setting [6]), greater than 15 in assay [2] (setting [7]) and greater than 0.66 in assay [2] (setting [8]). The fold induction at 3 µM was less than 1.04 in assay [1] (anti-CD3 alone) and greater than 0.66 in assay [2] (anti-CD3 alone). For the same molecule, the IC50 in assay [3] (setting [9]) and in assay [3] (setting [10]) was 1 to 5 nM each time.
